Reference: ChEMBL document CHEMBL1201862, “PubChem BioAssay data set” (2004)
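Method: 48-hour compound exposure of cells in 96-well plates, five concentrations, linear interpolation of endpoints. GI50 marks 50% less growth.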 Active and inactive are the calls of the source. Rule as the data show it: active = GI50 up to about 1.1 µM and inactive = higher.

How the values were obtained:
Experiment in all cases: DTP human tumour cell line panel, 48 h
HT-29 = test system: HT-29
SF-295 = test system: SF-295
786-0 = test system: 786-0
IGROV-1 = test system: IGROV-1
KM12 = test system: KM12
HCC 2998 = test system: HCC 2998
OVCAR-8 = test system: OVCAR-8
SK-MEL-5 = test system: SK-MEL-5
HCT-15 = test system: HCT-15
NCI-H23 = test system: NCI-H23
Malme-3M = test system: Malme-3M
NCI-H460 = test system: NCI-H460
A498 = test system: A498
SK-MEL-2 = test system: SK-MEL-2
U-251 = test system: U-251
SW-620 = test system: SW-620
MCF7 = test system: MCF7

Compound | GI50 (HT-29) | GI50 (SF-295) | GI50 (786-0) | GI50 (IGROV-1) | GI50 (KM12) | GI50 (HCC 2998) | GI50 (OVCAR-8) | GI50 (SK-MEL-5) | GI50 (HCT-15) [µM] | GI50 (NCI-H23) | GI50 (Malme-3M) | GI50 (NCI-H460) | GI50 (A498) | GI50 (SK-MEL-2) | GI50 (U-251) | GI50 (SW-620) | GI50 (MCF7)
CCC(C)OC(=O)C1C2CCC(O2)C1C(=O)O (configuration not stated) | > 43.4 µM (inactive) | > 100 µM (inactive) | > 44.2 µM (inactive) | > 100 µM (inactive) | > 100 µM (inactive) | > 100 µM (inactive) | > 70 µM (inactive) | > 100 µM (inactive) | > 41.1 | > 100 µM (inactive) | > 100 µM (inactive) | 24.7 µM (inactive) | > 47.3 µM (inactive) | > 100 µM (inactive) | > 44.3 µM (inactive) | – | –
COC(=O)CC(=O)OC | > 100 µM (inactive) | > 100 µM (inactive) | > 100 µM (inactive) | > 100 µM (inactive) | > 100 µM (inactive) | > 100 µM (inactive) | > 100 µM (inactive) | > 100 µM (inactive) | > 100 | > 100 µM (inactive) | > 100 µM (inactive) | > 100 µM (inactive) | > 100 µM (inactive) | > 100 µM (inactive) | > 100 µM (inactive) | > 100 µM (inactive) | –
Cc1ccc(/C=C/C(=O)c2cccc3ccccc23)cc1 | 18.2 µM (inactive) | 17.7 µM (inactive) | 15 µM (inactive) | > 10 µM (inactive) | 13.2 µM (inactive) | 22.9 µM (inactive) | 14.5 µM (inactive) | > 10 µM (inactive) | 19.1 | > 10 µM (inactive) | 15.3 µM (inactive) | 15.2 µM (inactive) | 13.9 µM (inactive) | 18.5 µM (inactive) | 13 µM (inactive) | 13.5 µM (inactive) | –
Clc1ccc(C2=Nc3ccccc3SC(c3ccc(Cl)c(Cl)c3)C2)c(Cl)c1 (configuration not stated) | 11.4 µM (inactive) | 12.4 µM (inactive) | 14.5 µM (inactive) | 14.7 µM (inactive) | 7.08 µM (inactive) | 14.6 µM (inactive) | 15.3 µM (inactive) | 18 µM (inactive) | 9.71 | 15.3 µM (inactive) | 16.1 µM (inactive) | 17.3 µM (inactive) | 20.6 µM (inactive) | 17.4 µM (inactive) | 17.8 µM (inactive) | 6.9 µM (inactive) | –
C[n+]1c2ccccc2c(NC(CS)C(=O)O)c2ccccc21 (configuration not stated) | 28.9 µM (inactive) | 19.9 µM (inactive) | 24 µM (inactive) | 25.4 µM (inactive) | 18.6 µM (inactive) | 32.9 µM (inactive) | 19.4 µM (inactive) | 17.3 µM (inactive) | 28.1 | 32 µM (inactive) | 24.2 µM (inactive) | 29.8 µM (inactive) | 15.6 µM (inactive) | 28.2 µM (inactive) | 24.5 µM (inactive) | 39.3 µM (inactive) | –
Clc1ccc(SCCCCCCCCCCSc2ccc(Cl)cc2)cc1 | > 100 µM (inactive) | > 57.9 µM (inactive) | > 55.6 µM (inactive) | > 100 µM (inactive) | > 55.1 µM (inactive) | > 46.1 µM (inactive) | > 61 µM (inactive) | > 55.1 µM (inactive) | > 54.2 | > 100 µM (inactive) | > 56.5 µM (inactive) | > 59.7 µM (inactive) | > 73.8 µM (inactive) | > 56.1 µM (inactive) | > 57.4 µM (inactive) | 37.5 µM (inactive) | –
C[C@H]1C(=O)CC[C@]2(C)CCC(C(C)(C)O)CC12O (some centres not stated) | > 100 µM (inactive) | > 100 µM (inactive) | > 100 µM (inactive) | > 100 µM (inactive) | > 100 µM (inactive) | > 100 µM (inactive) | > 100 µM (inactive) | > 100 µM (inactive) | > 100 | > 100 µM (inactive) | > 100 µM (inactive) | > 100 µM (inactive) | > 100 µM (inactive) | > 100 µM (inactive) | > 100 µM (inactive) | > 100 µM (inactive) | –
CC1(C)C(=NNC(=O)C[N+](C)(C)C)C(C)(C)C1=NNC(=O)C[N+](C)(C)C | > 100 µM (inactive) | > 100 µM (inactive) | > 100 µM (inactive) | > 100 µM (inactive) | > 100 µM (inactive) | > 100 µM (inactive) | > 100 µM (inactive) | > 100 µM (inactive) | > 100 | > 100 µM (inactive) | > 100 µM (inactive) | > 100 µM (inactive) | > 100 µM (inactive) | > 100 µM (inactive) | > 100 µM (inactive) | – | –
C/C(=N\NC(=O)c1ccncc1)c1ccccc1F | – | > 10 µM (inactive) | > 10 µM (inactive) | > 10 µM (inactive) | > 10 µM (inactive) | > 10 µM (inactive) | > 10 µM (inactive) | > 10 µM (inactive) | > 10 | > 10 µM (inactive) | > 10 µM (inactive) | > 10 µM (inactive) | > 10 µM (inactive) | > 10 µM (inactive) | > 10 µM (inactive) | > 10 µM (inactive) | > 10 µM (inactive)
